We go through nine compounds from ChEMBL document CHEMBL5465560, “Selectivity Literature for EUbOPEN Chemogenomic Library” (2024).

Assay [1] concerns the target Tyrosine-protein kinase Fer (Homo sapiens) (UniProt P16591). Kind of assay: Selectivity interaction (Upstate Kinase Profiler service (Millipore)) EUB0000056c FER. Conditions: at 1 µM.
Assay [2] concerns the target Dual specificity protein kinase CLK3 (Homo sapiens, UniProt P49761). Put plainly: Selectivity interaction (Kinase panel (DSF assay)) EUB0001558a CLK3. On the technique in general: In DSF a fluorescence change marks the thermal transition of the protein.
The target of assay [3] is T1, Mitogen-activated protein kinase kinase kinase kinase 2 (Homo sapiens) (UniProt Q12851).
T1 sequence (whole entry): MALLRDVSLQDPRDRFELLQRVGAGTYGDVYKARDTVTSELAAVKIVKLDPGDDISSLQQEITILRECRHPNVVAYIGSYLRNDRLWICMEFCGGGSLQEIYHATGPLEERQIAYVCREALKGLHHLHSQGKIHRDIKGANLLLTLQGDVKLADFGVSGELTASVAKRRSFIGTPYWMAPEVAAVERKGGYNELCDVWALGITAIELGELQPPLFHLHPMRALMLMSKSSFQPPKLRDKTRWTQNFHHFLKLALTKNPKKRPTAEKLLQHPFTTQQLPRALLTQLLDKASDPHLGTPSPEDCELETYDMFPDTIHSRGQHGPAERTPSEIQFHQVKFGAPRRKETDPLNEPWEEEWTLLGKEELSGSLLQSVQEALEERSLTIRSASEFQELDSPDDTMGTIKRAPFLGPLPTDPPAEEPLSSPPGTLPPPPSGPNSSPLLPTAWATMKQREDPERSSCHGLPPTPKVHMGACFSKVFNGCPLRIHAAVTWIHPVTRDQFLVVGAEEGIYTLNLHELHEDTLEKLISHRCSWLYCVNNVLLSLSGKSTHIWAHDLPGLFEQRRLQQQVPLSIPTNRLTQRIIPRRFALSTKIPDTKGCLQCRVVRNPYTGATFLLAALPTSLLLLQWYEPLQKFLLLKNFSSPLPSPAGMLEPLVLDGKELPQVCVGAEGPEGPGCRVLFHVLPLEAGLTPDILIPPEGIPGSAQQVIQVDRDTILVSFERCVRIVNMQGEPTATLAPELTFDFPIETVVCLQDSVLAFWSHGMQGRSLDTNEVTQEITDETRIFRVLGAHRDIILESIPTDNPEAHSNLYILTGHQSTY
Put plainly: Selectivity interaction (Ambit KINOMEscan and KiNATiv profiling in Jurkat cells) EUB0000090b MAP4K2. Format: cell-based. To be noted: at 1 µM.

The subject of assay [4] is Hepatocyte growth factor receptor (Homo sapiens), P08581 [Y1235D]. Put plainly: (§1) Selectivity interaction (KinomeScan (DiscoverX)) EUB0000655a MET. To be noted: at 10 µM.
The subject of assay [5] is Hepatocyte growth factor receptor (Homo sapiens), P08581 [M1250T]. The description is as §1. Conditions: at 10 µM.
Assay [6] deals with Hepatocyte growth factor receptor (Homo sapiens, UniProt P08581). The assay is described as §1. Conditions: at 10 µM.
The target in assay [7] is MAP kinase-interacting serine/threonine-protein kinase 2 (Homo sapiens, UniProt Q9HBH9). Kind of assay: Selectivity interaction (KinomeScan (DiscoverX)) EUB0000655a MKNK2. To be noted: at 10 µM.
For assay [8], the target named is STE20-like serine/threonine-protein kinase (Homo sapiens, UniProt Q9H2G2). Put plainly: Selectivity interaction (KinomeScan (DiscoverX)) EUB0000695a SLK. To be noted: at 100 nM.
Assay [9] addresses CDK17/Cyclin-Y (Homo sapiens) (UniProt Q00537+Q8ND76). Put plainly: Selectivity interaction (Kinase panel (Z-LYTE Assay)) EUB0001632a CDK17. Format: protein-complex assay. Conditions: at 10 µM.
Assay [10] deals with Serine/threonine-protein kinase 25 (Homo sapiens) (UniProt O00506). Kind of assay: Selectivity interaction (ActivX KiNativ screen (kinase selectivity in THP-1 cell lysates)) EUB0000639a STK25. Format: subcellular. Conditions: lysate.
Assay [11] concerns the target T2, 5-hydroxytryptamine receptor 1A (Homo sapiens) (UniProt P08908).
T2 sequence (whole entry): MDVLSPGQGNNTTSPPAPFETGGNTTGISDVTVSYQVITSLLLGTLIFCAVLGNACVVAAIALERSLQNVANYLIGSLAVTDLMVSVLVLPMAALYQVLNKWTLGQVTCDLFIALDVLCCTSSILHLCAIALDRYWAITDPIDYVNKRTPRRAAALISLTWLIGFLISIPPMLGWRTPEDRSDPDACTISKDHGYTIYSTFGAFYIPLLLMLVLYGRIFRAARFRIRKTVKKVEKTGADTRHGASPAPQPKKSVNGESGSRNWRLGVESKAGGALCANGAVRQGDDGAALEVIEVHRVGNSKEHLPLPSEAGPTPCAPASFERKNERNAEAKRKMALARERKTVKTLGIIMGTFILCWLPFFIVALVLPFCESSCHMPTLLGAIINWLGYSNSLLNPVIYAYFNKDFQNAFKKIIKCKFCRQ
Kind of assay: Selectivity interaction (Safety Panel 44tm (Eurofins)) EUB0000162b HTR1A. To be noted: at 10 µM.

Assay [12] concerns the target T3, Ephrin type-A receptor 8 (Homo sapiens) (UniProt P29322).
T3 sequence (whole entry): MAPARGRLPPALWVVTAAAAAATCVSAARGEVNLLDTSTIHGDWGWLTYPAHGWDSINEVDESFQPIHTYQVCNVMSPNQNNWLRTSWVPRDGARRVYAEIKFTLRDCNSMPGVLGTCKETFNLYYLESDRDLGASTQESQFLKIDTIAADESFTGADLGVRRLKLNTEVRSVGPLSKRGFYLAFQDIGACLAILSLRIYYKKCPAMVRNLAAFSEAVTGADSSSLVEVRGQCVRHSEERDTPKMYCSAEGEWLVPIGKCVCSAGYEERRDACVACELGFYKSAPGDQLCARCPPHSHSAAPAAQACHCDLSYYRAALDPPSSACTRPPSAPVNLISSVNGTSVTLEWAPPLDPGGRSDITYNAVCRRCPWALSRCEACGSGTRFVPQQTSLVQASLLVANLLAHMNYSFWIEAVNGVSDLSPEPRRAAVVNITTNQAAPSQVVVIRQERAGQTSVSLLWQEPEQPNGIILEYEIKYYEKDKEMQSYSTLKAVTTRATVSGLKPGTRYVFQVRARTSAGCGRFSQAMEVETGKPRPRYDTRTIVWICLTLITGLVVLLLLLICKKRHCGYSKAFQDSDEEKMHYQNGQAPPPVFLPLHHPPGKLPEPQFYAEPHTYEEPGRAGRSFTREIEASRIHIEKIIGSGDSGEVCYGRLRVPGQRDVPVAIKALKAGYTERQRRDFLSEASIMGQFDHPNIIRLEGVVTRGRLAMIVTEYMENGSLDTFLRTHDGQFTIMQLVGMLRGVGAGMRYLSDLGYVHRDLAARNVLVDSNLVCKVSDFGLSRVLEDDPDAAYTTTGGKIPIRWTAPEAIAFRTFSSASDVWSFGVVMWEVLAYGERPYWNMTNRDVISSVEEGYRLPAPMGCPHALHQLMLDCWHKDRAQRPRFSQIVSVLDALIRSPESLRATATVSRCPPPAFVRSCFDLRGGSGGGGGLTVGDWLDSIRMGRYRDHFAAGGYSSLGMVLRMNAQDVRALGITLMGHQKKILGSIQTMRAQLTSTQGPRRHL
Kind of assay: Selectivity interaction (KinomeScan (DiscoverX)) EUB0000618a EPHA8. Conditions: at 10 µM.

Structures are written as SMILES.

Serine/threonine-protein kinase 25 (Homo sapiens), sequence (O00506 whole entry, looked up): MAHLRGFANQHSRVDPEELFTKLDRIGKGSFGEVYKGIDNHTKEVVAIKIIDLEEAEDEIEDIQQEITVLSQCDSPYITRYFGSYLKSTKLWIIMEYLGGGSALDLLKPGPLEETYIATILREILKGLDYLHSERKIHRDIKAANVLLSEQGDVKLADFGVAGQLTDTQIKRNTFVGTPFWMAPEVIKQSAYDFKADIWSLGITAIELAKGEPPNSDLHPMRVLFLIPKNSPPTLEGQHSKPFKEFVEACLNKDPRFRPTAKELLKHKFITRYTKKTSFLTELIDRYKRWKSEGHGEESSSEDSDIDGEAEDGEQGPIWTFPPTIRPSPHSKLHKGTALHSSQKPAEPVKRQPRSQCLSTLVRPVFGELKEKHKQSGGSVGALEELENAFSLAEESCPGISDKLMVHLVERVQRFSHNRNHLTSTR
MAP kinase-interacting serine/threonine-protein kinase 2, sequence (Q9HBH9 whole entry, looked up): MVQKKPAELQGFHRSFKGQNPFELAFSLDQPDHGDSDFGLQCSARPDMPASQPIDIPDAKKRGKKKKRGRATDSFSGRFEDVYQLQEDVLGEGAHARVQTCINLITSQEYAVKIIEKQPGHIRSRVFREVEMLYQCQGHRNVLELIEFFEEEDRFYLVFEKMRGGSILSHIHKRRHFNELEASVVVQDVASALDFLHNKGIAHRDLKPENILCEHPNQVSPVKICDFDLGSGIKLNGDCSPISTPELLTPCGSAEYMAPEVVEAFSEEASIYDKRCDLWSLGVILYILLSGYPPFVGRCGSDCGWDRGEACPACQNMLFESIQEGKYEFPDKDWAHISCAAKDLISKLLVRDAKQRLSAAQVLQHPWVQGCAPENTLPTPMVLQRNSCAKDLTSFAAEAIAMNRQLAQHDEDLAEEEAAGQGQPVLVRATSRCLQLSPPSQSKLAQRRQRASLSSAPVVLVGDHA
STE20-like serine/threonine-protein kinase, sequence (Q9H2G2 whole entry, looked up): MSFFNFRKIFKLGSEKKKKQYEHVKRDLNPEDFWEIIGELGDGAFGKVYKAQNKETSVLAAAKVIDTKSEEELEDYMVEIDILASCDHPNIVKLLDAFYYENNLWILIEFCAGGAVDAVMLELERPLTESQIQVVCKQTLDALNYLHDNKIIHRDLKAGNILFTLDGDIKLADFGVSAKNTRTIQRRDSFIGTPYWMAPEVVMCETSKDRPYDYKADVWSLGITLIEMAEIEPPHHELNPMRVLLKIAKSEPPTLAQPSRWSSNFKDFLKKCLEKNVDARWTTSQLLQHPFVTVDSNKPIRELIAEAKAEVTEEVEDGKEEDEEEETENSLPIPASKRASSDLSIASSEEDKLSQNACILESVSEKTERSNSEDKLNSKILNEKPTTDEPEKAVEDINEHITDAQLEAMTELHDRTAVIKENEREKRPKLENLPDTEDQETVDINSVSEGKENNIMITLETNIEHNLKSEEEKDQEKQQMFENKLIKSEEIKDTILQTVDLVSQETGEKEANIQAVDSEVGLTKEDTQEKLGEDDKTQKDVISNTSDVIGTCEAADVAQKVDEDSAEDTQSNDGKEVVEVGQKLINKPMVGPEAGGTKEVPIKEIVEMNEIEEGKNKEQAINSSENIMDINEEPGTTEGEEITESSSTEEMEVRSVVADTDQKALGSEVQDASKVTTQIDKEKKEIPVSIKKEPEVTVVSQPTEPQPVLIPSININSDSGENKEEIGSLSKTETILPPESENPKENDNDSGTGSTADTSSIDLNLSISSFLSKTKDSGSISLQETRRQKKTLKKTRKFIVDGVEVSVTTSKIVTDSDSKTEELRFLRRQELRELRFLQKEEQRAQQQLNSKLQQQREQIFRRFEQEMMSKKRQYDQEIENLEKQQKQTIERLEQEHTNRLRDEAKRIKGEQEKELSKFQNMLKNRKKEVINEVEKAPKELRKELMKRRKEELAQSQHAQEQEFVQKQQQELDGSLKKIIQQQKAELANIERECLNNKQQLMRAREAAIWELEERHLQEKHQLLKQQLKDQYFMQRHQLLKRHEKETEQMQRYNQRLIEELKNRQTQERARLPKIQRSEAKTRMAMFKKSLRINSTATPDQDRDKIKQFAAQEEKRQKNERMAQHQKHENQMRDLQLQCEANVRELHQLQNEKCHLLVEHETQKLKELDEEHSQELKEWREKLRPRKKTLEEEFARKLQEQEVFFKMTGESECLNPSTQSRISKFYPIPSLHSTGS
Hepatocyte growth factor receptor (Homo sapiens), P08581 [Y1235D], sequence (P08581 whole entry Y1235D): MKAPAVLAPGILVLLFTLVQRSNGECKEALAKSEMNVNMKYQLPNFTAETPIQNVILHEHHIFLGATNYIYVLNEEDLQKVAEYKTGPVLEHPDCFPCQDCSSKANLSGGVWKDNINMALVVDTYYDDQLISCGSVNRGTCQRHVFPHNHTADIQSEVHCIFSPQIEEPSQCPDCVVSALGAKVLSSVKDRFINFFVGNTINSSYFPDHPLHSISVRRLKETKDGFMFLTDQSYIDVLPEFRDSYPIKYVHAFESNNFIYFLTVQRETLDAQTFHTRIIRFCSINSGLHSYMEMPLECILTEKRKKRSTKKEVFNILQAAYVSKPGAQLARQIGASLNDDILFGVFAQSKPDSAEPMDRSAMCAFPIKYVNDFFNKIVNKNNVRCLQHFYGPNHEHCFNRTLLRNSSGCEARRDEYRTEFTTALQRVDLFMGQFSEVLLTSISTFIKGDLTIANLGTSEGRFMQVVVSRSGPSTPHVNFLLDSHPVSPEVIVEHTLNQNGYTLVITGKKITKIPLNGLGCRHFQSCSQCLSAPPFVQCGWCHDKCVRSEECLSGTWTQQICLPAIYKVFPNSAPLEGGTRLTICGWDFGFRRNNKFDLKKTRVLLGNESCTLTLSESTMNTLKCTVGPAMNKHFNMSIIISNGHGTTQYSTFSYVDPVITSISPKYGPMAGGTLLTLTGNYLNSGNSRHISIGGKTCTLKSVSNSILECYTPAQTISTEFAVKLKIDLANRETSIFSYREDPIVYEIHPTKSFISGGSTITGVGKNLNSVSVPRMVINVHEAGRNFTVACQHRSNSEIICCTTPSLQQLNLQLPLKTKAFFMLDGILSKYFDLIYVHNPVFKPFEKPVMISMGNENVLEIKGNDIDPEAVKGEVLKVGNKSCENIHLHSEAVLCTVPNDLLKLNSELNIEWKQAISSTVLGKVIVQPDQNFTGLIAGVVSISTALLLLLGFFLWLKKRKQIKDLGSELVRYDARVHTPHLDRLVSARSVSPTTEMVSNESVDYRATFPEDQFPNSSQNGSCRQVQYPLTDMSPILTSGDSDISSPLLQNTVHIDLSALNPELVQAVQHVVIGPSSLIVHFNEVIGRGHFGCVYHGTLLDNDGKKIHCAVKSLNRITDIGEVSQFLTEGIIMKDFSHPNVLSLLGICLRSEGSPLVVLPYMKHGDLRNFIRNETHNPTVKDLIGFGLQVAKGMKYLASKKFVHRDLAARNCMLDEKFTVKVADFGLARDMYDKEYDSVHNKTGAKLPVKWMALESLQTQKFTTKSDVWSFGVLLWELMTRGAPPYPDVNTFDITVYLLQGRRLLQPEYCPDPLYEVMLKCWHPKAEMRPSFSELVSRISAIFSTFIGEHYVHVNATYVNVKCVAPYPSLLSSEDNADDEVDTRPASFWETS
Tyrosine-protein kinase Fer (Homo sapiens), sequence (P16591 whole entry, looked up): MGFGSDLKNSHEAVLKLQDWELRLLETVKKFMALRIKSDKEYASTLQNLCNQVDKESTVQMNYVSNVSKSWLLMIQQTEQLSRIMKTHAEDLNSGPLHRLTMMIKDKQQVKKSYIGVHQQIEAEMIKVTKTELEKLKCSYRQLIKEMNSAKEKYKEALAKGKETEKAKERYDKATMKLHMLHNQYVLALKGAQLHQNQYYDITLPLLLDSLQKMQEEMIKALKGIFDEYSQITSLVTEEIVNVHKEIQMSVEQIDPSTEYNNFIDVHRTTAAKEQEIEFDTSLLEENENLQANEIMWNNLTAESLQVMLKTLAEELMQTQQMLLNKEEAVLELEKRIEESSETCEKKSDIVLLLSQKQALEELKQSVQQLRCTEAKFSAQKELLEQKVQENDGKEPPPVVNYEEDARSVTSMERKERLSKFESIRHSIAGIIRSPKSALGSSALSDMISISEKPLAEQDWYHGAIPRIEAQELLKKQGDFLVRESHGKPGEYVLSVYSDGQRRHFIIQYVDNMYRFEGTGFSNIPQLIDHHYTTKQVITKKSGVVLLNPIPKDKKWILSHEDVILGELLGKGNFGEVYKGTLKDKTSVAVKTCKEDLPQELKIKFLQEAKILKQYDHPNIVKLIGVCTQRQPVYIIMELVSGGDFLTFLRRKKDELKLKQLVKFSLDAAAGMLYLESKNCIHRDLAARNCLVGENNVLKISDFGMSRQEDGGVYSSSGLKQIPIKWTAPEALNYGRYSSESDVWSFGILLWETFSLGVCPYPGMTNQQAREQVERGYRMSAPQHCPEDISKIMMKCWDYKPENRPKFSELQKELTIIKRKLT
Dual specificity protein kinase CLK3, sequence (P49761 whole entry, looked up): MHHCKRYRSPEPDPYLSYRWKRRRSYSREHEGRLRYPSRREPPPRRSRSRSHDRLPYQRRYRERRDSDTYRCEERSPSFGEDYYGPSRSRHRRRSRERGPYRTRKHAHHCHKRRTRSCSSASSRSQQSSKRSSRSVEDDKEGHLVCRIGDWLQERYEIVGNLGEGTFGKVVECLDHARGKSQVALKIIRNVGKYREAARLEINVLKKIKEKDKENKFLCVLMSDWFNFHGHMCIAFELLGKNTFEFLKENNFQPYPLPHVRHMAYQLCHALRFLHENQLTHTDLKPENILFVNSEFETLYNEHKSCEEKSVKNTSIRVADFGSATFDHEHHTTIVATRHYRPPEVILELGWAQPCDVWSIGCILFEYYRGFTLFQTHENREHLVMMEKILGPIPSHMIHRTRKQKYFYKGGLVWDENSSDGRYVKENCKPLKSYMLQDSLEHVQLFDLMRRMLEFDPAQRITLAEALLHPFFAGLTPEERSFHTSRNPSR

In the case of `Cc1ccc(-c2ccc3c(ccc4sc5c(c43)NC[C@@H](C)NC5=O)n2)cn1`, the % of inhibition in [1] came to 11%.
For the compound `CC(C)(O)[C@H](F)CN1Cc2cc(NC(=O)c3cnn4cccnc34)c(N3CCOCC3)cc2C1=O`, the dTM in [2] is 1.3 K.
Consider `CN(C)C/C=C/C(=O)Nc1ccc(C(=O)N2CCCC(Nc3ncc(Cl)c(-c4c[nH]c5ccccc45)n3)C2)cc1` (stereo unspecified), for which the % of control in [3] was 100%.
`CN(C)CCOc1ccc(-c2nc(-c3ccncc3)c(-c3ccc4c(c3)CC/C4=N\O)[nH]2)cc1`: the % of control in assay [4] stood at 64%; in assay [5], 64%; in assay [6] it was 50%; in [7] it was 95%.
In assay [8], `Cc1cc(F)c(C(=O)Nc2cccc(-c3nncn3C(C)C)n2)cc1-n1cnc(C2CC2)c1` had a % of control of 77%.
`Cn1cc(-n2cnc3c(NCc4nc5cc(Cl)c(Cl)cc5[nH]4)nc(N4CCOCC4)nc32)cn1` displayed a % of control in assay [9] of 8.66%.
Consider `CC[C@@H]1[C@H](F)C(=O)N[C@@H]1COc1nccc2cc(C(N)=O)c(OC)cc12` [ZIMLOVISERTIB], for which the % of inhibition in [10] (at 0.01 µM) was 19.6%; in assay [10] (at 0.04 µM), -3.8%; in [10] (at 0.2 µM), -4.9%; in assay [10] (at 1 µM), -9.2%; in [10] (at 5 µM), 21.8%.
`CN(C)C(=O)Cn1cc(-c2ccc(-c3cncc4ccccc34)cc2)cn1` returned a % of control in assay [11] of 50%.
In turn, `O[C@H]1CC[C@H](Nc2ncc3nc(Nc4c(F)cc(F)cc4F)n([C@H]4CCOC4)c3n2)CC1` registered a % of control in assay [12] of 72%.
